{"source": "patent US10258620B2", "about": "“Crystalline form of 5-amino-2,3-dihydrophthalazine-1,4-dione sodium salt, pharmaceutical preparations containing the same and method for the production of said form” (METRIOPHARM AG, priority 2014, dated 2019)", "key": {"[1]": {"settings": "determination repeated 10 times", "protocol": "After drying all forms produced were vortexed for 1 minute to let bigger agglomerates carefully disaggregate.\nA sample of each of the respective solids to be determined was filled into a plastic funnel for solids (diameter of the outlet: 11 mm) with closable outlet which was mounted in a height of 20 mm above the collecting vessel. The funnel used was always filled half-full, thereby ensuring that there was always more sample material provided than necessary for filling the collecting vessel. After opening the outlet the respective solids trickled into the collecting vessel until it was filled up above the upper rim. The supernatant of the respective solids was removed with a spatula and the filled collecting vessel was weighed out with a high-resolution balance. The determination for each form was repeated 10 times and the mean value was calculated (Table 3)."}, "[2]": {"tested_on": "IL-6", "settings": "PMA-differentiated HL60 cells, pre-stimulation 1 h with 1 mmol/l, then 100 ng/mL LPS 24 h, 3 measurements, LPS control 42.81", "protocol": "(§1) For the differentiation to macrophages HL60 cells were treated with phorbol 12-myristate 13-acetate (PMA) in advance. […] The secretion of TNF alpha and IL-6 was determined in the cell supernatant using ELISA testing over 3 measurements, respectively. Table 4 as well as FIGS. 7a and 7b show the respective mean value m and the standard deviation s (GraphPad Prism 5)."}, "[3]": {"tested_on": "TNF alpha", "settings": "PMA-differentiated HL60 cells, pre-stimulation 1 h with 1 mmol/l, then 100 ng/mL LPS 24 h, 3 measurements, LPS control 30.08", "protocol": "as §1"}, "[4]": {"settings": "from WO2011/107295A1; cited from earlier work"}, "[5]": {"assay": "physchem", "protocol": "Determination of the maximum solubility of crystalline form III in water at RT was carried out with UV-Vis spectroscopy in an Agilent Cary 300 UV-Vis spectrometer. This process is based on a linear correlation between the concentration of a dissolved solid and the calculated absorption at a particular wavelength (Beer-Lambert law).\nA stock solution of 0.502 g of form III in 2 mL H2O (demineralized) was produced. For the generating a 3-point calibration curve three solutions were produced after appropriate dilution thereof with concentrations of 0.5041 mmol/l, 0.2521 mmol/l and 0.1260 mmol/l, and their respective absorption at 347 nm was determined. […] Further, a supersaturated solution of 0.531 g of form III in 2 mL H2O (demineralized) was produced to determine the maximum concentration. 100 μL of the solution were 2000-fold diluted and the absorption at 347 nm was determined as well."}, "[6]": {"settings": "methanol or ethanol", "text": "In polymorphs of crystalline solids phase transitions occur depending on the thermodynamic stability of the individual forms. […] Different transformation processes are known. […] In this respect so-called slurry experiments can provide information on the thermodynamic stability of polymorphs of a solid.\nTo compare the stability under the influence of solvents 50:50 (wt %) solid phase mixtures were produced of form III according to the invention and form I as well as of form III according to the invention and form II.\nIn each case 0.05 g of the respective solid phase mixture were suspended in 5 mL 2-propanol, methanol or ethanol, respectively. The mixture of form III and form I was stirred at RT for 3 days. The mixture of form III and form II was stirred at RT for 24 h. The suspensions were filtered under vacuum utilizing a Büchner funnel. The remaining crystalline solid was completely dried at RT. X-ray powder diffraction patterns of the resulting crystalline solids were recorded with a Bragg-Brentano diffractometer (STOE STADI P) provided with a DECTRIS MythenlK detector using mono-chromatized (Ge111-monochromator) copper emissions Cu K(α1) (wave length λ=1.54187 Å)."}, "[7]": {"settings": "30-600° C., synthetic air, heating rate 10° C./min", "protocol": "The determination was carried out by means of simultaneous thermogravimetry (differential scanning calorimetry) at a Linseis L81-077 coupled with mass spectroscopy measurements with a Netzsch STA 449 C (thermobalance) with MS and FTIR coupling over 30-600° C. under synthetic air (4 N2:1 O2) and a heating rate of 10° C./min. The data were analyzed with the company software Proteus."}, "[8]": {"settings": "FIG. 8, increasing proportion of H2O"}, "[9]": {"settings": "water, thermodynamic from solid"}}, "note": "Structures can show the parent of a compound that is named as a salt. Where two headings read alike, the source gives them in different places.", "data": [{"smiles": "Nc1cccc2c(=O)[nH][nH]c(=O)c12", "note": "[Dihydrate, 5-amino-2,3-dihydrophthalazine-1,4-dione sodium salt dihydrate]", "values": [{"measurement": "Bulk densities (mean ± standard deviation)", "setting": "[1]; sodium salt dihydrate", "value": "72.3 ± 4.1", "unit": "kg/m^3"}, {"measurement": "IL-6 secretion, mean m", "setting": "[2]; sodium salt dihydrate", "value": 40.93, "unit": "pg/mL"}, {"measurement": "TNF-alpha secretion, mean m", "setting": "[3]; sodium salt dihydrate", "value": 26.87, "unit": "pg/mL"}, {"measurement": "solid phase transition temperature", "setting": "[4]", "value": 85, "unit": "°C"}]}, {"smiles": "Nc1cccc2c(=O)[nH][nH]c(=O)c12", "note": "[Form III, 5-amino-2,3-dihydrophthalazine-1,4-dione sodium salt]", "values": [{"measurement": "Bulk densities (mean ± standard deviation)", "setting": "[1]; sodium salt", "value": "203.5 ± 6.7", "unit": "kg/m^3"}, {"measurement": "solubility in water compared with forms I and II", "setting": "[5]; RT, forms I and II cf. WO2011/107295A1", "value": "less soluble than forms I and II"}, {"measurement": "solubility", "setting": "[5]; [9]", "value": 145, "unit": "mg/mL"}, {"measurement": "solubility thermodynamic", "setting": "[5]; [9]", "value": 730, "unit": "mM"}, {"measurement": "thermodynamic stability versus form I", "setting": "[6]; 50:50 wt % mixture of form I and form III in 2-propanol, stirred at RT for 3 days", "value": "thermodynamically more stable polymorph"}, {"measurement": "thermodynamic stability versus form II", "setting": "[6]; 50:50 wt % mixture of form II and form III in 2-propanol, stirred at RT for 24 h", "value": "thermodynamically more stable polymorph"}, {"measurement": "temperature at which decomposition starts", "setting": "[7]", "value": 391.7, "unit": "°C"}, {"measurement": "IL-6 secretion, mean m", "setting": "[2]; sodium salt", "value": 34.86, "unit": "pg/mL"}, {"measurement": "TNF-alpha secretion, mean m", "setting": "[3]; sodium salt", "value": 22.15, "unit": "pg/mL"}]}, {"smiles": "Nc1cccc2c(=O)[nH][nH]c(=O)c12", "note": "[5-amino-2,3-dihydrophthalazine-1,4-dione sodium salt]", "values": [{"measurement": "solubility in a DMSO-H2O mixture with increasing proportion of H2O", "setting": "[8]", "value": "increases continuously"}]}, {"smiles": "Nc1cccc2c(=O)[nH][nH]c(=O)c12", "note": "[Form I, 5-amino-2,3-dihydrophthalazine-1,4-dione sodium salt]", "values": [{"measurement": "Bulk densities (mean ± standard deviation)", "setting": "[1]; sodium salt", "value": "201.9 ± 3.9", "unit": "kg/m^3"}, {"measurement": "IL-6 secretion, mean m", "setting": "[2]; sodium salt", "value": 41.15, "unit": "pg/mL"}, {"measurement": "TNF-alpha secretion, mean m", "setting": "[3]; sodium salt", "value": 25.28, "unit": "pg/mL"}]}, {"smiles": "Nc1cccc2c(=O)[nH][nH]c(=O)c12", "note": "[Form II, 5-amino-2,3-dihydrophthalazine-1,4-dione sodium salt]", "values": [{"measurement": "Bulk densities (mean ± standard deviation)", "setting": "[1]; sodium salt", "value": "108.6 ± 3.0", "unit": "kg/m^3"}, {"measurement": "IL-6 secretion, mean m", "setting": "[2]; sodium salt", "value": 36.11, "unit": "pg/mL"}, {"measurement": "TNF-alpha secretion, mean m", "setting": "[3]; sodium salt", "value": 22.16, "unit": "pg/mL"}]}]}
